Consider two compounds from ChEMBL document CHEMBL4673225, “Highly Selective PTK2 Proteolysis Targeting Chimeras to Probe Focal Adhesion Kinase Scaffolding Functions” (J Med Chem, 2019).

Calls of active or inactive are those of the source. No cut-off for these calls is given here.

Common to all, as to type: cell-based
In assay [1] the target is T1, von Hippel-Lindau disease tumor suppressor/Focal adhesion kinase 1 (Homo sapiens, UniProt Q05397+P40337). Nature of the assay: Protac activity at VHL/PTK2 in human SNU-423 cells assessed as induction of PTK2 degradation incubated for 18 hrs by protein capillary electrophoresis method relative to control.
Target sequence in this assay (P40337 whole entry partner): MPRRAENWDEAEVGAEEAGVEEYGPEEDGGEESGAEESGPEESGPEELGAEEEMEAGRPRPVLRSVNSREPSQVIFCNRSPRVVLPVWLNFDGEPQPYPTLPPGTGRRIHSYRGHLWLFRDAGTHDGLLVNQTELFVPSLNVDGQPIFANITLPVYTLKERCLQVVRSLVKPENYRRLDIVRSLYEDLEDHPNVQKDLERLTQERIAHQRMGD
Target sequence in this assay (Q05397 2-1052 limits assumed): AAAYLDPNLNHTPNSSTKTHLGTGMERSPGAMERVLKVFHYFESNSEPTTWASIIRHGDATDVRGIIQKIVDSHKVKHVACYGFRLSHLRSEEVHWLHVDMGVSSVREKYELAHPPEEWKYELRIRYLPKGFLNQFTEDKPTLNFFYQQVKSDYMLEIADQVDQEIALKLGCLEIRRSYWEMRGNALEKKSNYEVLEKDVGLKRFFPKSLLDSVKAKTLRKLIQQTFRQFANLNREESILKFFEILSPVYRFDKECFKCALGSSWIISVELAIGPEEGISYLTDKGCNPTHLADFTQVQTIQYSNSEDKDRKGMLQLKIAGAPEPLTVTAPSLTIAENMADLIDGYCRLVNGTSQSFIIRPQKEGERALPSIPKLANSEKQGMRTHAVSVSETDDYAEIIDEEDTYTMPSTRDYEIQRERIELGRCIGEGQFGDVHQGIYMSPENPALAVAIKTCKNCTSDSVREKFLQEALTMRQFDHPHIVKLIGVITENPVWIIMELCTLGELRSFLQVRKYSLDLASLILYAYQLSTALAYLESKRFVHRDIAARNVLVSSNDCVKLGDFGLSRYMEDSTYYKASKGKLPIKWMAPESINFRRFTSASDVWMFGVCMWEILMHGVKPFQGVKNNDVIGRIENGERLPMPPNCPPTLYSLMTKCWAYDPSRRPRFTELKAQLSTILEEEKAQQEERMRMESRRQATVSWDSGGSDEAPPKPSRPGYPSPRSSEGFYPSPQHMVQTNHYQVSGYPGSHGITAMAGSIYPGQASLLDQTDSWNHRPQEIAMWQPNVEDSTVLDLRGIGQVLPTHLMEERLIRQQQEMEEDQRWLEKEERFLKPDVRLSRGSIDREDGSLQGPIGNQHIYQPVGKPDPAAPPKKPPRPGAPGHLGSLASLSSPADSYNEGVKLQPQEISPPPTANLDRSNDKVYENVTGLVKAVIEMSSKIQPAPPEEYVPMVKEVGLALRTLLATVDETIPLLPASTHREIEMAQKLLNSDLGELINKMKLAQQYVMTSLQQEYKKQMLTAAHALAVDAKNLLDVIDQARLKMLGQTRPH
Assay [2] addresses T1, von Hippel-Lindau disease tumor suppressor/Focal adhesion kinase 1. Nature of the assay: Protac activity at VHL/PTK2 in human HLE cells assessed as induction of PTK2 degradation incubated for 18 hrs by protein capillary electrophoresis method relative to control.
Target sequence in this assay (P40337 whole entry partner): as the sequence (P40337 whole entry partner) above
Target sequence in this assay (Q05397 2-1052 limits assumed): as the sequence (Q05397 2-1052 limits assumed) above
The target is the same in assay [3]. Kind of assay: Protac activity at VHL/PTK2 in human SNU-398 cells assessed as induction of PTK2 degradation incubated for 18 hrs by protein capillary electrophoresis method relative to control.
Target sequence in this assay (P40337 whole entry partner): as the sequence (P40337 whole entry partner) above
Target sequence in this assay (Q05397 2-1052 limits assumed): as the sequence (Q05397 2-1052 limits assumed) above
For assay [4] the target is unchanged. Nature of the assay: Protac activity at VHL/PTK2 in human HuH-1 cells assessed as induction of PTK2 degradation incubated for 18 hrs by protein capillary electrophoresis method relative to control.
Target sequence in this assay (P40337 whole entry partner): as the sequence (P40337 whole entry partner) above
Target sequence in this assay (Q05397 2-1052 limits assumed): as the sequence (Q05397 2-1052 limits assumed) above
Assay [5] shares this target. Nature of the assay: Protac activity at VHL/PTK2 in human SK-HEP1 cells assessed as induction of PTK2 degradation incubated for 18 hrs by protein capillary electrophoresis method.
Target sequence in this assay (Q05397 whole entry): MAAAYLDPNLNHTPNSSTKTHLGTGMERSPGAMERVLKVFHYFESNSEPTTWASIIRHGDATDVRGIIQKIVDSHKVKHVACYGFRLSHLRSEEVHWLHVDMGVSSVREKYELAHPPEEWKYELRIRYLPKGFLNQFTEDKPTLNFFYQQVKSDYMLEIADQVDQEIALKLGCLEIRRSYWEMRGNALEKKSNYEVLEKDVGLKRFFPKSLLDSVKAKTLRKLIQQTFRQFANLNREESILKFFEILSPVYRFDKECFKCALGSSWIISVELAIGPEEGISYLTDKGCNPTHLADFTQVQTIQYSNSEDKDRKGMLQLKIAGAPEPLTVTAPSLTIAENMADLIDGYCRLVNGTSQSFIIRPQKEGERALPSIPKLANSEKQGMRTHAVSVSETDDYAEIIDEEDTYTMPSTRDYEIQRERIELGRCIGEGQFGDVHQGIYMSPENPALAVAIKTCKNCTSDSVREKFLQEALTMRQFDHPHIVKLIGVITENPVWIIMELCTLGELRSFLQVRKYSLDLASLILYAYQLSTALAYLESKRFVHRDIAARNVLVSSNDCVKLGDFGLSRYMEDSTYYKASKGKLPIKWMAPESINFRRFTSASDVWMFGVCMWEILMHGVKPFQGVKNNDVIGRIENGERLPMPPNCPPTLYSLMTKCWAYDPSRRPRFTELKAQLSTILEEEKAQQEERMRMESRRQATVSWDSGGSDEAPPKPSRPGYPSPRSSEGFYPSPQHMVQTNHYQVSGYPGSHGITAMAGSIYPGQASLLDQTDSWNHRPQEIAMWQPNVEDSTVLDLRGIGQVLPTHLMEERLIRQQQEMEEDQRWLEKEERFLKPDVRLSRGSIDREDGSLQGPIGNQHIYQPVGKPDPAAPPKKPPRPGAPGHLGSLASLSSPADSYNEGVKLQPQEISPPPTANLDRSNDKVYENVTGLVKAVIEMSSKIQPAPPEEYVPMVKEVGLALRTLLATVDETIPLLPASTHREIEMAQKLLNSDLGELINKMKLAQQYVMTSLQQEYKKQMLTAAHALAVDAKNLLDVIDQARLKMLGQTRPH
Target sequence in this assay (P40337 whole entry): as the sequence (P40337 whole entry partner) above
Assay [6] has the same target. Kind of assay: Protac activity at VHL/PTK2 in human HepG2 cells assessed as induction of PTK2 degradation incubated for 18 hrs by protein capillary electrophoresis method.
Target sequence in this assay (Q05397 whole entry): as the sequence (Q05397 whole entry) above
Target sequence in this assay (P40337 whole entry): as the sequence (P40337 whole entry partner) above
For assay [7] the target is unchanged. Kind of assay: Protac activity at VHL/PTK2 in human SNU-387 cells assessed as induction of PTK2 degradation incubated for 18 hrs by protein capillary electrophoresis method.
Target sequence in this assay (Q05397 whole entry): as the sequence (Q05397 whole entry) above
Target sequence in this assay (P40337 whole entry): as the sequence (P40337 whole entry partner) above
The target is the same in assay [8]. Nature of the assay: Protac activity at VHL/PTK2 in human A549 cells assessed as induction of PTK2 degradation at 1 to 100000 nM incubated for 18 hrs in presence of NEDD8 inhibitor […] by protein capillary electrophoresis method. The note with it: dose 1-100000 nM.
Target sequence in this assay (P40337 whole entry partner): as above
Target sequence in this assay (Q05397 2-1052 limits assumed): as the sequence (Q05397 2-1052 limits assumed) above
Assay [9] deals with T2, Protein cereblon/Focal adhesion kinase 1 (Homo sapiens, UniProt Q05397+Q96SW2). Kind of assay: Protac activity at CRBN/PTK2 in human HepG2 cells assessed as induction of PTK2 degradation incubated for 18 hrs by protein capillary electrophoresis method relative to control.
Target sequence in this assay (Q05397 2-1052 limits assumed): as above
Target sequence in this assay (Q96SW2 whole entry partner): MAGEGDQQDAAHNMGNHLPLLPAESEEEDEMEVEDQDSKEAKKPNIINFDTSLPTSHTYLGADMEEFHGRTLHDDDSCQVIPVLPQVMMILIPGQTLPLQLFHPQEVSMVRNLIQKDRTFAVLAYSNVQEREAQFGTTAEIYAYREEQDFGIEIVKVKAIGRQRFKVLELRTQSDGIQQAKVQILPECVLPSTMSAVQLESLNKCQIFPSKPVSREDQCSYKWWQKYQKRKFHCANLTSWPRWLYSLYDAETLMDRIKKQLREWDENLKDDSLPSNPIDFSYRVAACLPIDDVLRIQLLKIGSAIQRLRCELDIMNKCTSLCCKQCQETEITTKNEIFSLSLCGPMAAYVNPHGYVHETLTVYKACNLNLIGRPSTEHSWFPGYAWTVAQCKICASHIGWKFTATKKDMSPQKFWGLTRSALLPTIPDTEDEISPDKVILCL
Assay [10] addresses T2, Protein cereblon/Focal adhesion kinase 1. Kind of assay: Protac activity at CRBN/PTK2 in human HuH-1 cells assessed as induction of PTK2 degradation incubated for 18 hrs by protein capillary electrophoresis method relative to control.
Target sequence in this assay (Q05397 2-1052 limits assumed): as the sequence (Q05397 2-1052 limits assumed) above
Target sequence in this assay (Q96SW2 whole entry partner): as the sequence (Q96SW2 whole entry partner) above
Assay [11] has the same target. Kind of assay: Protac activity at CRBN/PTK2 in human SNU-423 cells assessed as induction of PTK2 degradation incubated for 18 hrs by protein capillary electrophoresis method.
Assay [12] shares this target. Kind of assay: Protac activity at CRBN/PTK2 in human Huh-7 cells assessed as induction of PTK2 degradation incubated for 18 hrs by protein capillary electrophoresis method.
Assay [13] shares this target. Nature of the assay: Protac activity at CRBN/PTK2 in human HuCCT-1 cells assessed as induction of PTK2 degradation incubated for 18 hrs by protein capillary electrophoresis method.
Assay [14] has the same target. Kind of assay: Protac activity at CRBN/PTK2 in human HepG2 cells assessed as induction of PTK2 degradation incubated for 18 hrs by protein capillary electrophoresis method.
Assay [15] has the same target. Nature of the assay: Protac activity at CRBN/PTK2 in human Hep3B2.1-7 cells assessed as induction of PTK2 degradation incubated for 18 hrs in presence of Cyclosporine A by protein capillary electrophoresis method relative to control. The note with it: Hep3B.
Target sequence in this assay (Q05397 2-1052 limits assumed): as the sequence (Q05397 2-1052 limits assumed) above
Target sequence in this assay (Q96SW2 whole entry partner): as the sequence (Q96SW2 whole entry partner) above
Assay [16] shares this target. Nature of the assay: Protac activity at CRBN/PTK2 in human A549 cells assessed as induction of PTK2 degradation at 1 to 100000 nM incubated for 18 hrs in presence of NEDD8 inhibitor […] by protein capillary electrophoresis method. The note with it: dose 1-100000 nM.
Target sequence in this assay (Q05397 2-1052 limits assumed): as the sequence (Q05397 2-1052 limits assumed) above
Target sequence in this assay (Q96SW2 whole entry partner): as the sequence (Q96SW2 whole entry partner) above
Assay [17] has the same target. Kind of assay: Protac activity at CRBN/PTK2 in human A549 cells assessed as induction of PTK2 degradation incubated for 18 hrs by protein capillary electrophoresis method relative to control.
Target sequence in this assay (Q05397 2-1052 limits assumed): as the sequence (Q05397 2-1052 limits assumed) above
Target sequence in this assay (Q96SW2 whole entry partner): as the sequence (Q96SW2 whole entry partner) above

Consider `COc1cc(C(=O)NCCOCCOCCOCC(=O)N[C@H](C(=O)N2C[C@H](O)C[C@H]2C(=O)NCc2ccc(-c3scnc3C)cc2)C(C)(C)C)ccc1Nc1ncc(C(F)(F)F)c(Oc2cccc3c2C(=O)CC3)n1`, for which the Emax (commonly the size of the effect at its maximum, as opposed to the concentration needed) in assay [1] came out at 87%; in [2], 85%; in assay [3], 99%; in [4] it was 79%. Further, the figures for the pDC50 in assay [5], in [6] and in assay [7] were 6.9, 6.2 and 7.5, respectively. Besides, the result in assay [8] was inactive.
As for `COc1cc(C(=O)NCCOCCOCCOCCC(=O)Nc2cccc3c2C(=O)N(C2CCC(=O)NC2=O)C3=O)ccc1Nc1ncc(C(F)(F)F)c(Oc2cccc3c2C(=O)CC3)n1` (configuration not stated), the Emax in [9] amounted to 89%; in [10], 50%; in assay [15] it was 94%; in assay [17], 95%. Also, the pDC50 in [11] is recorded as 7.9; in [12], 7.3; in [13], 7.9; in assay [14], 7.5. For the same compound, in assay [16], the result was inactive.
